In patent publication US8946201B2, “Methods for inhibiting TGF-β” (Saint Louis University, priority 2007, dated 2015):

Columns and labels:
TβR-I and TβR-II [1] = test: 125I-TGF-β1 affinity labeling, BAEC; type: cell-based, bovine
Description: (§1) (B, C, D, E) Cells were treated with increasing concentrations of cholesterol in the presence (C) and absence (B, D, E) of 0.2% β-CD, as indicated. After 1 hr at 37° C., ^125I-TGF-β1 affinity labeling of TβR-I and TβR-II in cells was performed at 0° C. ^125I-TGF-β1 affinity-labeled TβR-I and TβR-II were analyzed by 7.5% SDS-PAGE and autoradiography or quantified with a PhosphoImager. A representative of a total of three analyses is shown (top). The bracket indicates the locations of ^125I-TGF-β affinity-labeled TβR-I and TβR-II. The relative intensities of ^125I-TGF-β1 affinity-labeled TβR-I and TβR-II in cells treated without cholesterol were taken as 100%. The quantitative data from three analyses is shown (bottom).
(§2) (A, B, C, D, E, F) Cells were treated with LDL (50 μg protein/ml), VLDL (5 μg protein/ml), HDL (50 μg protein/ml), lipoprotein (a) (10 μg/ml), fluvastatin (F; 1 μM), lovastatin (L; 1 μM), nystatin (Nys; 25 μg/ml), β-CD (β-CD; 8 mM), cholest-4-en-3-one (3-one; 50 μg/ml) or cholesterol (Chol; 50 μg/ml) alone or combination of two. After 1 hr at 37° C. or 16 hr at 37° C. (for fluvastatin and lovastatin), ^125I-TGF-β1 affinity labeling of cell-surface TGF-β receptors was performed at 0° C. ^125I-TGF-β1 affinity-labeled TβR-I and TβR-II were analyzed by 7.5% SDS-PAGE and autoradiography. The relative intensities of TβR-I and TβR-II were quantified with a PhosphoImager. The ratio of ^125I-TGF-β1 binding to TβR-II and TβR-I were estimated. The numbers above the lane sequence denote the ratio of TβR-II/TβR-I.
(§3) After cross-linking, cell lysates were analyzed by 7.5% SDS-PAGE and autoradiography or quantified by a PhosphoImager. For all experiments, cholesterol or cholesterol derivatives were prepared as the stock solution with a concentration of 25 mg/ml in ethanol. The final concentration of ethanol in the medium was 0.2% (by vol.).

TβR-I and TβR-II [2] = test: 125I-TGF-β1 affinity labeling, Mv1Lu cells; type: cell-based, mink
Description: (A) Mv1Lu cells were treated with 50 μg/ml cholesterol at 37° C. After several time periods, as indicated, ^125I-TGF-β1-affinity labeling was performed at 0° C. ^125I-TGF-β1 affinity-labeled TGF-β receptors were analyzed by 7.5% SDS-PAGE and autoradiography (a) and quantified with a PhosphoImager. The bracket indicates the locations of ^125I-TGF-β1 affinity-labeled TβR-I and TβR-II. The ratio of ^125I-TGF-β1 binding to TβR-II and TβR-I is plotted against incubation time (b).
as §1
The bracket indicates the locations of ^125I-TGF-β1 affinity-labeled TβR-I and TβR-II. The relative intensities of ^125I-TGF-β1-TβR-I and ^125I-TGF-β1-TβR-II complexes, which were quantified with a PhosphoImager, are plotted against TGF-β1 concentrations (bottom).
as §2
(G) Mv1Lu cells were treated with 50 μg/ml of cholesterol and cholesterol analogs/derivatives including 25-hydroxycholesterol, 7-dehydrocholesterol (7-DHC), 7-ketocholesterol, 7β, 8β-epoxycholesterol, 7β-hydroxycholesterol, and oxidized 7-dehydrocholesterol (oxy-7DHC). After 1 hr at 37° C., ^125I-TGF-β1 affinity labeling of TGF-β receptors was performed. ^125I-TGF-β1 affinity-labeled TβR-I and TβR-II were analyzed by 7.5% SDS-PAGE and autoradiography. The bracket indicates the locations of ^125I-TGF-β1-affinity-labeled TβR-I and TβR-II. The relative intensities of ^125I-TGF-β1 affinity-labeled TβR-I and TβR-II were determined by a PhosphoImager. The ratios of ^125I-TGF-β1 binding to TβR-II and TβR-I were estimated. The numbers above the lane sequence denote the ratio of TβR-II/TβR-I.
as §3

[3] = test system: luciferase reporter gene driven by the PAI-1 promoter; test: Luciferase activity assay, MLECs-clone 32; type: cell-based, mink
Description: (A, B, C, D, E, F) Cells were treated with 50 μg/ml cholesterol (A, B, C, D) and 50 μg/ml LDL (D) at 37° C. for 1 hr or with 1 μM fluvastatin or lovastatin (E) or several concentrations of fluvastatin (F) at 37° C. for 16 hr and then further incubated with increasing concentrations (as indicated) of TGF-β1 (A, B, C, E) or 50 pM TGF-β1 (D,F) for 2 hr. Northern blot analysis of PAI-1 and G3PDH was performed. A representative of a total of three analyses is shown (a). The relative intensities of the transcripts were quantified with a PhosphoImager. The ratio of the relative intensities of PAI-1 and G3PDH transcripts in cells treated without TGF-β1 and cholesterol, LDL or statins on the blot was taken as 1 fold or 100% of PAI-1 expression. The quantitative data from three independent analyses is shown (b). […] (G) Mv1Lu cells stably expressing a luciferase reporter gene driven by the PAI-1 promoter (MLECs-clone 32) were treated with increasing concentrations (as indicated) of cholesterol at 37 EC for 1 hr (a) or with 1 μM lovastatin at 37° C. for 16 hr (b) and then further incubated with 50 pM TGF-β for 7 hr. The luciferase activity in cells treated without cholesterol was taken as 100% (a). […] (H) Cells were incubated with 0.0625 and 0.125 pM TGF-β1 in the presence of increasing concentrations of cholesterol, as indicated. […] The experiments were carried out in triplicate.

[4] = 50 μg/ml, 60-min or 120-min incubation (FIG. 3A)
[5] = 125 μg/ml in the presence of 0.2% β-CD

In the case of `CC[C@H](C)C(=O)O[C@H]1C[C@@H](C)C=C2C=C[C@H](C)[C@H](CC[C@@H]3C[C@@H](O)CC(=O)O3)[C@H]21` [lovastatin, reference compound], the “ratio of TβR-II/TβR-I” value (TβR-I and TβR-II [1]; 1 μM, 37° C. 16 hr, BAEC cells, 2.47 untreated) is reported as 2.6, the “ratio of TβR-II/TβR-I” value (TβR-I and TβR-II [2]; 1 μM, 37° C. 16 hr, Mv1Lu cells, 0.88 untreated) is reported as 1.18 and the “enhancement of TGF-β1-stimulated luciferase activity” value ([3]; 1 μM, 16 hr, 50 pM TGF-β1) is reported as 1.7 fold.

For `CC(C)CCC[C@@H](C)[C@H]1CC[C@H]2[C@@H]3CC=C4C[C@@H](O)CC[C@]4(C)[C@H]3CC[C@]12C` [cholesterol], the “increase of 125I-TGF-β1 binding to TβR-I” value (TβR-I and TβR-II [1]; 50 μg/ml, 1 hr, BAEC) was roughly 2.5 fold, the “ratio of TβR-II/TβR-I” value (TβR-I and TβR-II [1]; 50 μg/ml, 1 hr, BAEC, 3.5 untreated) was 1.4 and the “effect on binding of 125I-TGF-β1 to TβR-II” value (TβR-I and TβR-II [1]; increasing concentrations, 1 hr, BAEC) was “did not significant alter”. For the same molecule, the “effect on 125I-TGF-β1 binding to TβR-II” value (TβR-I and TβR-II [2]; [4]) was “did not affect”, the “increase of 125I-TGF-β1 binding to TβR-I” value (TβR-I and TβR-II [2]; [4]) was roughly 1.5 fold and the “ratio of TβR-II/TβR-I” value (TβR-I and TβR-II [2]; 50 μg/ml, 60 min or 120 min, 0.37 without cholesterol) was 0.18. The “effect on the affinities of TGF-β1 binding to both TβR-I and TβR-II” value (TβR-I and TβR-II [2]; 50 μg/ml, 1 hr) was “does not alter”, the “relative potency in increasing binding to TβR-I and decreasing the ratio” value (TβR-I and TβR-II [2]; 50 μg/ml, 1 hr (FIG. 4G)) was “the most potent of these compounds” and the “increase of 125I-TGF-β1 binding to TβR-I” value (TβR-I and TβR-II [2]; 50 μg/ml, 1 hr, 125 pM 125I-TGF-β1 (FIG. 3F)) was roughly 2 fold. The 125I-TGF-β1 binding to TβR-II, relative intensity (TβR-I and TβR-II [2]; 50 μg/ml, 1 hr, 125 pM 125I-TGF-β1, ~180 untreated) was ~120 ×10^3 A.U, the “125I-TGF-β1 binding to TβR-I, relative intensity” value (TβR-I and TβR-II [2]; 50 μg/ml, 1 hr, 125 pM 125I-TGF-β1, ~350 untreated) was ~700 ×10^3 A.U and the “ratio of TGF-β1 binding to TβR-II and TβR-I” value (TβR-I and TβR-II [2]; 50 μg/ml, 1 hr, 0.62 untreated (FIG. 4G)) was 0.29. For the same molecule, the “increase of 125I-TGF-β1 binding to TβR-I” value (TβR-I and TβR-II [2]; 50 μg/ml, 1 hr, Mv1Lu cells) was roughly 2.5 fold, the “ratio of TβR-II/TβR-I” value (TβR-I and TβR-II [2]; 50 μg/ml, 1 hr, Mv1Lu cells, 0.42 untreated) was 0.20 and the “effect on 125I-TGF-β1 binding to TβR-II” value (TβR-I and TβR-II [2]; [5]) was “little effect”. The “increase of 125I-TGF-β1 binding to TβR-I” value (TβR-I and TβR-II [2]; [5]) was roughly 3 fold, the “effect of exogenous cholesterol on the statin effect on the ratio” value (TβR-I and TβR-II [2]; CHO-K1, Mv1Lu and BAEC cells (FIGS. 4D, E and F)) was “abolished” and the “effect on binding of 125I-TGF-β1 to TβR-II” value (TβR-I and TβR-II [2]; increasing concentrations, 1 hr, Mv1Lu cells) was “did not significant alter”. For the same molecule, the “effect of cholesterol alone on TGF-β-stimulated luciferase activity” value ([3]; 25 ug/ml, without lovastatin) was “did not alter”, the “suppression of TGF-β1-stimulated luciferase activity” value ([3]; 50 μg/ml, 50 pM TGF-β1) was 40% and the luciferase activity ([3]; cells treated with cholesterol (25 ug/ml), lovastatin and TGF-β1) was 2314±120 A.U. The “effect on the stimulatory effect of lovastatin on TGF-β-stimulated luciferase activity” value ([3]; cholesterol 25 ug/ml for 1 hr prior to TGF-β stimulation) was “abolished”.

In the case of `C[C@@H]1[C@H](O)[C@@H](C)/C=C/C=C/CC/C=C/C=C/C=C/C=C/C(O[C@H]2O[C@H](C)[C@@H](O)[C@H](N)[C@@H]2O)CC2O[C@](O)(CC(O)C(O)CCC(O)CC(O)CC(O)CC(=O)O[C@H]1C)CC(O)C2C(=O)O` (some centres unmarked) [nystatin, reference compound], the “effect on the LDL- or cholesterol-induced increase of 125I-TGF-β1 binding to TβR-I” value (TβR-I and TβR-II [2]; co-treatment, β-CD 8 mM, nystatin 25 μg/ml, cholest-4-en-3-one 50 μg/ml (FIG. 4B, C)) is reported as “abolished”.
